ChEMBL document CHEMBL3301361, “Experimental in vitro DMPK and physicochemical data on a set of publicly disclosed compounds”

Test: physchem
Conditions: octan-1-ol/water, pH 7.4, LogD7.4

logD	Structure (SMILES)
3.41	Cc1cc(C)c2c(N)c(C(=O)NCc3ccccc3)sc2n1
3.5	CNC(=O)c1ccc(CCC(COc2ccc(-c3cccc([N+](=O)[O-])c3)cc2)N2C(=O)CSC2=O)cc1 (stereo unspecified)
3.47	O=C(COCc1ccccn1)N1CCN(c2ccc(Cl)cc2Cl)CC1
3.69	Cc1cc(NCc2ccccc2)nc2ccccc12
3.31	CSc1ncccc1C(=O)NCCc1ccc(Cl)cc1
3.65	Cc1ccc(Oc2ccc(C(=O)NCc3ccncc3)cc2)cc1
3.63	CCNc1nc(N)c(C(=O)c2ccc(Cl)s2)s1
3.33	O=c1ccoc2cc(OCc3ccccc3)ccc12
3.44	O=C(Nc1ccccc1)c1cc2ccccc2o1
3.62	O=C(Nc1nc(-c2ccccc2)cs1)c1cccnc1
3.5	COc1ccc(C(=O)Nc2cccc(NC(=O)c3ccc(OC)c(OC)c3)n2)cc1OC
3.4	COc1ccc(Cl)cc1NC(=O)CCS(=O)(=O)c1ccc(Br)cc1
3.62	CN(C)c1ccnc2sc(C(=O)NCc3ccccc3)c(N)c12
3.7	CCCc1c(C(=O)Nc2cc(C)on2)cnn1-c1ccccc1
3.5	Cn1cnc2cc(C#Cc3ccccc3)cnc21
3.56	CC[C@H](NC(=O)c1c([S+](C)[O-])c(-c2cccs2)nc2ccccc12)c1ccccc1 (stereo partly specified)
3.45	CC[C@H](NC(=O)c1c([S+]([O-])CC)c(-c2ccccc2)nc2ccccc12)c1ccccc1 (stereo partly specified)
3.62	CC[C@H](NC(=O)c1c([S+](C)[O-])c(-c2ccccc2)nc2cc(F)ccc12)c1ccccc1 (stereo partly specified)
3.41	COc1cc(Nc2nccc(Oc3cnc4ccccc4c3)n2)cc(OC)c1OC
3.58	Cc1nc(C(=O)[C@@H](C)Oc2ccc(SCCCCCc3ccccc3)cc2)sc1CCCC(=O)O
3.65	COc1ccc(OC)c(-c2cccc3c(N)c(C(=O)NC(C)C)nnc23)c1
3.47	COc1ccc(OC)c(-c2c(F)ccc3c(N)c(C(=O)NC4CC4)nnc23)c1
3.37	COc1ccc(-c2c(F)ccc3c(N)c(C(=O)NC4CC4)nnc23)c(OC)n1
3.4	COc1ncc(C)cc1-c1cccc2c(N)c(C(=O)NC3CC3)nnc12
3.49	COc1ccc(C(=O)Nc2cc(NC(=O)c3cccc(N(C)C)c3)ccc2Br)cc1OC
3.6	CCOc1cccc(Nc2nnc(C(=O)Nc3ccc(N4CCOCC4)nc3)o2)c1
3.64	O=C(Nc1ccc(Cl)nc1)c1ccc(F)c(Cl)c1

logD	Structure (SMILES)
3.4	CC(C)OC(=O)N1CCC(Oc2ncnc3c2CCN3c2ccc(S(C)(=O)=O)cc2F)CC1
3.33	O=C(NC[C@@H](O)CN1CCC(Oc2ccc(Cl)c(Cl)c2)CC1)c1cn2cc(F)ccc2n1
3.6	O=C(Nc1ccc(F)cc1F)c1cc(Cl)ccc1O
3.56	COCCNC(=O)c1ccc(Nc2ncc3cc(-c4ccnc(C)c4)ccc3n2)cc1
3.46	CC(=O)N[C@H](C)c1ccc(Nc2ncc3cc(-c4ccncc4)cc(C)c3n2)cc1
3.49	O=C(NC1Cc2ccccc2N(CCCO)C1=O)c1cc2cc(Cl)sc2[nH]1 (stereo unspecified)
3.37	O=C(NC1Cc2ccccc2N(C[C@@H](O)CO)C1=O)c1cc2cc(Cl)sc2[nH]1 (stereo partly specified)
3.7	CNc1nc2nc(SCc3cccc(F)c3F)nc(N[C@H](C)CO)c2s1
3.61	COc1ccc2c(C)cc(N[C@H]3CCC[C@H](NCc4cccc(OC(F)(F)F)c4)C3)nc2c1
3.57	CCCc1c(OCCCSc2ccc(CC(=O)O)cc2Cl)ccc(C(=O)CC)c1O
3.67	Cn1cc(C#N)cc1-c1c2c(=O)n(C)c(=O)n(CC3CC3)c2nn1Cc1ccnc2ccc(Cl)cc12
3.55	Cc1cnc2c(N[C@H](C)CO)nc(SCc3cccc(F)c3F)nc2n1
3.58	COC(=O)[C@H](Cc1ccc([N+](=O)[O-])cc1)NC(=O)c1cccc2ccccc12
3.6	COc1ccc(Cl)c(Nc2ncnc3cc(OC)cc(OC4CCN(C)CC4)c23)c1
3.4	CCNC(=O)OC[C@@H](C)N(c1cc(Cl)ccc1CO)S(=O)(=O)c1ccc(Cl)cc1
3.32	C[C@H](CO)Nc1nc(SCc2cccc(F)c2F)nc2[nH]c(=O)c(C#N)cc12
3.5	Cc1cnc2nc(SCc3cccc(F)c3F)nc(N[C@H](C)CO)c2n1
3.31	CNC(=O)c1ccc(Nc2ncc(F)c(-c3cnc(C)n3C(C)C)n2)cc1F
3.34	COc1cc2ncc(C(N)=O)c(Nc3ccc(C)cc3F)c2cc1OC
3.6	COc1cc2ncc(C(N)=O)c(Nc3cccc(Cl)c3F)c2cc1OC
3.41	COc1cc2c(Nc3cccc(Cl)c3Cl)c(C(N)=O)cnc2cc1NCCN(C)C
3.5	COc1cc2ncnc(Nc3cccc(C)c3)c2cc1OC
3.4	CCOc1ccc2nc(NC(=O)CC)sc2c1
3.66	CCN(CC)S(=O)(=O)c1ccc(NC(=O)[C@@](C)(O)C(F)(F)F)c(Cl)c1
3.38	COc1cc(C(=O)c2cc(Cl)ccc2N)cc(OC)c1OC
3.5	COc1cc2ncnc(NCc3cccc(C)c3)c2cc1OC

Second part, the compound before the results:

Structure (SMILES)	logD
Cc1cccc(C(=O)N2CCC(C(=O)c3ccc(F)cc3)CC2)c1	3.4
CCCS(=O)(=O)c1ccc(C(CNS(=O)(=O)c2ccc(C(F)(F)F)cc2)N2CCCCCC2)cc1 (stereo unspecified)	3.32
CC(C)Cn1c(=O)n(C)c(=O)c2c(C(=O)N3CC=CC3)c(Cc3ccccc3C(F)(F)F)sc21	3.53
Cc1cc2n[nH]c(=O)n2c2cc(-c3cccc(CO)c3)ccc12	3.36
Nc1ccc(Cl)c(C(=O)NCC23CC4CC(CC(C4)C2)C3)c1	3.45
Cc1[nH]c2nc(NCc3cccc(Br)c3)nn2c(=O)c1Cc1ccccc1	3.68
CCCS(=O)(=O)N1CCCC(C(=O)N2CCC(Cc3ccccc3)CC2)C1 (stereo unspecified)	3.44
Cc1[nH]c2nc(NCc3cccc(Cl)c3)nn2c(=O)c1Cc1ccccc1	3.6
Clc1cccc(-n2nnnc2NCc2ccccc2Oc2ccccn2)c1Cl	3.62
Cc1[nH]c2nc(NCc3ccc(Cl)cc3)nn2c(=O)c1Cc1ccccc1	3.7
CN(c1ccccc1)c1ccnc(Nc2cc(N3CCOCC3)cc(N3CCOCC3)c2)n1	3.47
Cc1ccc(CO)cc1N(C)c1ccnc(Nc2cc(OC3CCOCC3)cc(N3CCOCC3)c2)n1	3.7
O=C1O[C@@H](Cn2nncc2F)CN1c1ccc(C2=CCS(=O)(=O)CC2)c(F)c1	3.54
CCN(C(=O)Cc1ccc(S(=O)(=O)N(C)C)cc1)C1CCN(CCC(c2ccccc2)c2ccccc2)CC1	3.7
CN(C(=O)Cc1ccc(C#N)cc1)C1CCN(CCC(c2ccccc2)c2ccccc2)CC1	3.7
COc1cc(N2CCN(C(C)=O)CC2)ccc1Nc1ncc(Cl)c(-c2cnc3c(OC)cccn23)n1	3.5
COc1cc(N2CCN(C(C)=O)CC2)ccc1Nc1ncc(Cl)c(-c2cnc3cc(F)ccn23)n1	3.7
N#Cc1cc(O)cc2nc(-c3ccc(O)cc3)oc12	3.6
CCc1ccccc1-c1ccc(-c2nc3ccncc3c(O)c2C#N)cc1	3.5
O=C(Nc1ccc(Cl)c(Cl)c1)N1CCN(C[C@H]2CN(C3CC3)CCO2)CC1	3.32
O=[N+]([O-])c1cccc2ccc(C(Cl)(Cl)Cl)nc12	3.7
CC#CCn1c(=O)c2c(-c3cncn3C)n(Cc3ccnc4ccc(Cl)cc34)nc2n(CC2CC2)c1=O	3.61
Cn1cncc1-c1c2c(=O)n(C3CC3)c(=O)n(CC3CC3)c2nn1Cc1ccnc2ccc(Cl)cc12	3.53
C#CC(C)n1c(=O)c2c(-c3cncn3C)n(Cc3ccnc4ccc(Cl)cc34)nc2n(CC2CC2)c1=O (stereo unspecified)	3.59
Cn1cc(C#N)cc1-c1c2c(=O)n(CC#CCn3cncn3)c(=O)n(CC3CC3)c2nn1Cc1ccnc2ccc(Cl)cc12	3.43
Cn1cc(C#N)cc1-c1c2c(=O)n(CC#N)c(=O)n(CC3CC3)c2nn1Cc1ccnc2ccc(Cl)cc12	3.33
COc1cc(CCc2cc(Nc3ccnc(NCc4ccccn4)n3)[nH]n2)cc(OC)c1	3.5

Structure (SMILES)	logD
C[C@H]1O[C@@H](n2cnc3c(N)nc(OCC45CC6CC(CC(C6)C4)C5)nc32)[C@H](O)[C@@H]1O	3.58
CC(C)c1ccccc1Cc1cc(C(=O)Nc2ccc(S(=O)(=O)c3ccccc3C(C)(C)C)cc2)c(O)c(O)c1O	3.44
Cc1ccc(Oc2cccc(CN3CCCC(n4cc(C)c(=O)[nH]c4=O)C3)c2)cc1 (stereo unspecified)	3.38
Cc1cn(C2CCCN(Cc3cccc(Oc4ccc(Cl)cc4)c3)C2)c(=O)[nH]c1=O (stereo unspecified)	3.38
Cc1cn([C@H]2CCCN(Cc3cccc(Oc4cccc(Br)c4)c3)C2)c(=O)[nH]c1=O	3.68
CC#Cc1ccnc(-c2cc(C3(C4CC4)N=C(C)C(N)=N3)ccc2O)c1 (stereo unspecified)	3.6
N#C/C(=C(\N)Sc1ccc(N)cc1)c1ccccc1C(F)(F)F	3.4
O=S(=O)(c1ccccc1)C1(c2cc(N3CCOCC3)nc(-c3cccc4[nH]ccc34)n2)CC1	3.4
NC1(C(=O)NC(c2ccc(Cl)cc2)C2CC2)CCN(c2ncnc3[nH]ccc23)CC1 (stereo unspecified)	3.4
O=C(NC1Cc2ccccc2N(CC(CO)CO)C1=O)c1cc2cc(Cl)ccc2[nH]1 (stereo unspecified)	3.64
O=C1CCCc2nc(C#Cc3ccccc3)ccc21	3.53
FC(F)(F)c1cc(CO[C@H]2CCCN[C@H]2c2ccccc2)cc(C(F)(F)F)c1	3.6
O=C(COc1ccc(SCCCCCc2ccccc2)cc1)COc1ccc(C(=O)O)cc1	3.63
C1CCc2c(c3c(N4CCCC4)nc(N4CCCC4)nc3n2CCN2CCOCC2)C1	3.6
C[C@@H]1CCCN1CCc1cc2cc(-c3ccc(C#N)cc3)ccc2o1	3.51
CC(C)Cn1c(=O)n(C)c(=O)c2c(S(=O)(=O)N3CC[C@@H](O)C3)c(Cc3ccccc3C(F)(F)F)sc21	3.32
COc1cc2ncnc(Nc3cc(Cl)ccc3F)c2cc1OCCCN1CCOCC1	3.4
CC(CNS(=O)(=O)C(C)C)c1ccc(-c2ccc(C#N)cc2)cc1 (stereo unspecified)	3.5
Cc1ncc(-c2ccnc(Nc3ccc(C#N)cc3)n2)n1C(C)C	3.62
Oc1ccc(-c2csc(-c3ccc(O)cc3)n2)cc1	3.7
C(=C\c1c(-c2ccccc2)nc2sccn12)/c1ccncn1	3.4
CC(C)Oc1ccc(S(C)(=O)=O)cc1C(=O)N1CCN(c2ccc(C(F)(F)F)cc2)CC1	3.33
O=c1c(-c2ccc3c(c2)OCO3)coc2cc(O)cc(O)c12	3.5
Cn1c(CN2CCC(c3ccccc3)CC2)nc2ccccc21	3.6
Cn1c(CN2CCN(c3ccc(Cl)cc3)CC2)nc2ccccc21	3.54
Cc1cccc(C#Cc2ccccc2)n1	3.6
